In paper PMC11031283 (ACS synthetic biology, 2024):

Target: EncM (Streptomyces maritimus, UniProt Q9KHK2)
Test: LC-MS product formation, low activity
Format: biochemical
Conditions: in vitro purified enzyme; not detected in lysate

CCCCCc1cc(O)c(C/C=C(\C)CCC=C(C)C)c(O)c1C(=O)O [compound 3, cannabigerolic acid]
LC-MS product formation, low activity: several other enzymes had low activity not detected in lysate assays, including EncM
